Results as given in PubChem BioAssay AID330 (DTP/NCI, 2004).
“And” between values parts separate entries of the source, which are not always exact repeats. Equal values may be shown once. Inconclusive results and toxic doses are left out.

System: P388 leukemia ip, CD2F1 mice, survival T/C
Assay: NCI In Vivo Anticancer Drug Screen. Data for tumor model P388 Leukemia (intraperitoneal) in CD2F1 (CDF1) mice
Conditions: endpoint: median survival time, higher = longer survival
In short: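 Mice carrying the transplanted tumor received test compound or vehicle. Survival was recorded in each group, and the value is the treated-group measurement divided by that of the vehicle-treated control group.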

[1] = dose: 25.0 mg/kg/injection, schedule: Q01DX009 (ip), vehicle: saline with Tween-80
[2] = dose: 50.0 mg/kg/injection, schedule: Q01DX009 (ip), vehicle: saline
[3] = dose: 100.0 mg/kg/injection, schedule: Q01DX009 (ip), vehicle: saline
[4] = dose: 200.0 mg/kg/injection, schedule: Q01DX009 (ip), vehicle: saline with Tween-80
[5] = dose: 200.0 mg/kg/injection, schedule: Q01DX009 (ip), vehicle: saline
[6] = dose: 60.0 mg/kg/injection, schedule: Q01DX005 (ip), vehicle: saline with Tween-80
[7] = dose: 120.0 mg/kg/injection, schedule: Q01DX005 (ip), vehicle: saline with Tween-80
[8] = dose: 240.0 mg/kg/injection, schedule: Q01DX005 (ip), vehicle: saline with Tween-80
[9] = dose: 100.0 mg/kg/injection, schedule: Q04DX003 (ip), vehicle: saline
[10] = dose: 200.0 mg/kg/injection, schedule: Q04DX003 (ip), vehicle: saline
[11] = dose: 50.0 mg/kg/injection, schedule: Q01DX009 (ip), vehicle: Klucel (hydroxypropylcellulose) (HPC)
[12] = dose: 50.0 mg/kg/injection, schedule: Q01DX009 (ip), vehicle: saline with Tween-80
[13] = dose: 100.0 mg/kg/injection, schedule: Q01DX009 (ip), vehicle: saline with Tween-80
[14] = dose: 50.0 mg/kg/injection, schedule: Q01DX005 (ip), vehicle: Klucel (hydroxypropylcellulose) (HPC)
[15] = dose: 100.0 mg/kg/injection, schedule: Q01DX005 (ip), vehicle: Klucel (hydroxypropylcellulose) (HPC)
[16] = dose: 200.0 mg/kg/injection, schedule: Q01DX005 (ip), vehicle: Klucel (hydroxypropylcellulose) (HPC)

`CCCCCSCN(CC)CC` was tested, and the T/C [1] was 103 % of control, the T/C (dose: 25.0 mg/kg/injection, schedule: Q01DX009 (ip), vehicle: saline) was 99 % of control and 101 % of control and the T/C [2] was 100 % of control and 104 % of control and 91 % of control. The T/C [3] was 99 % of control and 101 % of control and 104 % of control, the T/C [4] was 114 % of control and the T/C [5] was 119 % of control (2×) and 120 % of control.
`Cn1c(=S)sc2nc3ccccc3n2c1=S` was tested, and the T/C (dose: 30.0 mg/kg/injection, schedule: Q01DX005 (ip), vehicle: saline with Tween-80) was 117 % of control, the T/C [6] was 121 % of control and the T/C [7] was 108 % of control.
With `CN=C(N)N/N=C/COc1ccc(C)cc1` the T/C (dose: 60.0 mg/kg/injection, schedule: Q01DX005 (ip), vehicle: saline) was 92 % of control and the T/C (dose: 120.0 mg/kg/injection, schedule: Q01DX005 (ip), vehicle: saline) was 94 % of control.
With `COc1ccc(C(CNC(=O)Cc2ccc(Oc3cc(CC(=O)NCC(OC)c4ccc(OC)c(OC)c4)ccc3OC)cc2)OC)cc1OC` (configuration not stated) the T/C [6] was 94 % of control, the T/C [7] was 86 % of control and the T/C [8] was 92 % of control.
In the case of `OCCN1CCC2(CC1)SSC1(CCN(CCO)CC1)S2`, the T/C (dose: 50.0 mg/kg/injection, schedule: Q04DX003 (ip), vehicle: saline) is reported as 100 % of control, the T/C [9] is reported as 100 % of control and the T/C [10] is reported as 100 % of control.
For `COc1cc(/C=C2\SC(=S)N(C3CC3)C2=O)ccc1O`, the T/C [2] was 97 % of control, the T/C [3] was 107 % of control and the T/C [5] was 104 % of control and 91 % of control.
In the case of `C=CC(C)(C)c1[nH]c2ccccc2c1CC1NC(=O)C(C)NC1=O` (configuration not stated), the T/C (dose: 12.5 mg/kg/injection, schedule: Q01DX009 (ip), vehicle: Klucel (hydroxypropylcellulose) (HPC)) is reported as 86 % of control and the T/C [11] is reported as 92 % of control.
In the case of `O=S(CCCl)c1ccccc1` (configuration not stated), the T/C [1] is reported as 96 % of control, the T/C [12] is reported as 97 % of control and the T/C [13] is reported as 101 % of control. The T/C [4] was 90 % of control.
With `O=C1NCC(=O)C(=O)N1` the T/C [2] was 100 % of control and 106 % of control, the T/C [3] was 101 % of control and 103 % of control and the T/C [5] was 100 % of control and 110 % of control. For the same compound, the T/C (dose: 400.0 mg/kg/injection, schedule: Q01DX009 (ip), vehicle: saline) was 103 % of control and 105 % of control.
For `c1ccccc1`, the T/C (dose: 0.12 % in 0.5 ml injection vol, schedule: Q01DX009 (ip), vehicle: water) was 100 % of control, the T/C (dose: 0.25 % in 0.5 ml injection vol, schedule: Q01DX009 (ip), vehicle: water) was 102 % of control and the T/C (dose: 0.5 % in 0.5 ml injection vol, schedule: Q01DX009 (ip), vehicle: water) was 104 % of control. For the same compound, the T/C (dose: 1.0 % in 0.5 ml injection vol, schedule: Q01DX009 (ip), vehicle: water) was 100 % of control, the T/C (dose: 2.0 % in 0.5 ml injection vol, schedule: Q01DX009 (ip), vehicle: water) was 100 % of control and 102 % of control and the T/C (dose: 4.0 % in 0.5 ml injection vol, schedule: Q01DX009 (ip), vehicle: water) was 99 % of control. For the same compound, the T/C (dose: 8.0 % in 0.5 ml injection vol, schedule: Q01DX009 (ip), vehicle: water) was 100 % of control and the T/C (dose: 16.0 % in 0.5 ml injection vol, schedule: Q01DX009 (ip), vehicle: water) was 95 % of control.
For `O=C(NC(Cc1ccc(Br)cc1)C(=O)O)c1cccc(Cl)c1` (configuration not stated), the T/C (dose: 50.0 mg/kg/injection, schedule: Q01DX005 (ip), vehicle: saline) was 100 % of control and the T/C (dose: 100.0 mg/kg/injection, schedule: Q01DX005 (ip), vehicle: saline) was 101 % of control.
With `O=C1C=C(N2CCOCC2)C(=O)C=C1N1CCOCC1` the T/C [14] was 90 % of control, the T/C [15] was 98 % of control and the T/C [16] was 92 % of control.
In the case of `O=C1OCCOCCOCCOCCOC(=O)c2cccc1n2`, the T/C (dose: 100.0 mg/kg/injection, schedule: Q04DX003 (ip), vehicle: Klucel (hydroxypropylcellulose) (HPC)) is reported as 105 % of control, the T/C (dose: 200.0 mg/kg/injection, schedule: Q04DX003 (ip), vehicle: Klucel (hydroxypropylcellulose) (HPC)) is reported as 104 % of control and the T/C (dose: 400.0 mg/kg/injection, schedule: Q04DX003 (ip), vehicle: Klucel (hydroxypropylcellulose) (HPC)) is reported as 102 % of control.
`CN1C(=O)NC(C)(c2cccc(N(CCCl)CCCl)c2)C1=O` (configuration not stated) was tested, and the T/C [11] was 158 % of control, the T/C (dose: 100.0 mg/kg/injection, schedule: Q01DX009 (ip), vehicle: Klucel (hydroxypropylcellulose) (HPC)) was 177 % of control and the T/C (dose: 200.0 mg/kg/injection, schedule: Q01DX009 (ip), vehicle: Klucel (hydroxypropylcellulose) (HPC)) was 160 % of control and 205 % of control.
With `COc1ccc(NC(=O)Oc2ccc3c(C)cc(=O)oc3c2)c(OC)c1` (tested in a mixture with another compound) the T/C [6] was 106 % of control and 117 % of control and the T/C [7] was 120 % of control and 121 % of control.
`O=C(CCl)NC(=O)CCl` was tested, and the T/C [1] was 90 % of control.
In the case of `Oc1cc2cccc[n+]2c2ccccc12`, the T/C (dose: 15.0 mg/kg/injection, schedule: Q01DX005 (ip), vehicle: Klucel (hydroxypropylcellulose) (HPC)) is reported as 99 % of control, the T/C (dose: 30.0 mg/kg/injection, schedule: Q01DX005 (ip), vehicle: Klucel (hydroxypropylcellulose) (HPC)) is reported as 101 % of control and the T/C (dose: 60.0 mg/kg/injection, schedule: Q01DX005 (ip), vehicle: Klucel (hydroxypropylcellulose) (HPC)) is reported as 118 % of control and 97 % of control.
With `O=c1[nH]c2cc(Cl)ccc2nc1/C=C(\O)c1ccc2ccccc2c1` the T/C [6] was 89 % of control, the T/C [7] was 89 % of control and the T/C [8] was 110 % of control.
With `N#CC(Nc1ccccc1)c1ccc(Cl)cc1` (configuration not stated) the T/C [6] was 94 % of control, the T/C [7] was 94 % of control and the T/C [8] was 104 % of control.
For `COC1=CC(C)C2CC3OC(=O)CC4C(C)=C(OC)C(=O)C(C2(C)C1=O)C34C` (configuration not stated), the T/C [14] was 95 % of control, the T/C [15] was 101 % of control and the T/C [16] was 101 % of control.
With `CCSC(C(OC(C)=O)C(OC(C)=O)C(COC(C)=O)OC(C)=O)n1cc(F)c(=O)[nH]c1=O` (configuration not stated) the T/C (dose: 25.0 mg/kg/injection, schedule: Q01DX005 (ip), vehicle: other) was 97 % of control, the T/C (dose: 50.0 mg/kg/injection, schedule: Q01DX005 (ip), vehicle: other) was 110 % of control and the T/C (dose: 100.0 mg/kg/injection, schedule: Q01DX005 (ip), vehicle: other) was 105 % of control. For the same compound, the T/C (dose: 200.0 mg/kg/injection, schedule: Q01DX005 (ip), vehicle: other) was 107 % of control, the T/C (dose: 400.0 mg/kg/injection, schedule: Q01DX005 (ip), vehicle: other) was 100 % of control and the T/C (dose: 400.0 mg/kg/injection, schedule: Q01DX009 (ip), vehicle: other) was 92 % of control.
For `CC[N]1c2cc(C(C)(C)C)cc(C(C)(C)C)c2[O][Sb]1([c]1ccccc1)([c]1ccccc1)[c]1ccccc1`, the T/C [12] was 98 % of control, the T/C [13] was 100 % of control and the T/C [4] was 98 % of control.
For `CCCCCCCCCCCCCCCC(=O)N(CCCCN(CCCN(C)C)C(=O)CCCCCCCCCCCCCCC)CCCN(C)C`, the T/C (dose: 12.5 mg/kg/injection, schedule: Q01DX009 (ip), vehicle: saline with Tween-80) was 90 % of control and the T/C [1] was 90 % of control.
With `Cc1cc(NCCCN(C)C)c2cc3ccc4cccc5ccc(c2n1)c3c45` the T/C [12] was 109 % of control and the T/C [13] was 108 % of control.
For `CC1=C2CC3CCC(C)C2(CC1)C3(C)C` (configuration not stated), the T/C [2] was 98 % of control, the T/C [3] was 95 % of control and the T/C [9] was 95 % of control. The T/C [5] was 95 % of control, the T/C [10] was 95 % of control and the T/C (dose: 400.0 mg/kg/injection, schedule: Q04DX003 (ip), vehicle: saline) was 100 % of control.
With `Cc1c(N)nc(C(CC(N)=O)NCC(N)C(N)=O)nc1C(=O)NC(C(=O)NC(C)C(O)C(C)C(=O)NC(C(=O)NCCc1nc(-c2nc(C(=O)NCCCNC(C)c3ccccc3)cs2)cs1)C(C)O)C(OC1OC(CO)C(O)C(O)C1OC1OC(CO)C(O)C(OC(N)=O)C1O)c1cnc[nH]1` (configuration not stated) the T/C (dose: 0.25 mg/kg/injection, schedule: Q01DX009 (ip), vehicle: water) was 104 % of control and 95 % of control, the T/C (dose: 0.5 mg/kg/injection, schedule: Q01DX009 (ip), vehicle: water) was 100 % of control and 111 % of control and 88 % of control and the T/C (dose: 1.0 mg/kg/injection, schedule: Q01DX009 (ip), vehicle: water) was 103 % of control and 104 % of control and 118 % of control. The T/C (dose: 2.0 mg/kg/injection, schedule: Q01DX009 (ip), vehicle: water) was 100 % of control and 113 % of control, the T/C (dose: 4.0 mg/kg/injection, schedule: Q01DX009 (ip), vehicle: water) was 114 % of control and 118 % of control and the T/C (dose: 8.0 mg/kg/injection, schedule: Q01DX009 (ip), vehicle: water) was 100 % of control.
In the case of `C/C(=N\NC(=O)c1ccccc1N)c1ccccc1O`, the T/C [14] is reported as 100 % of control, the T/C [15] is reported as 98 % of control and the T/C [16] is reported as 100 % of control.
In the case of `Cc1ccc2[nH]c3c(c2c1)C(=O)CCC3`, the T/C [14] is reported as 97 % of control, the T/C [15] is reported as 95 % of control and the T/C [16] is reported as 92 % of control.
For `CC1=C(Cl)C(=N\S(=O)(=O)c2ccccc2)/c2ccccc2/C1=N/S(=O)(=O)c1ccccc1`, the T/C (dose: 100.0 mg/kg/injection, schedule: Q01DX001 (ip), vehicle: saline with Tween-80) was 95 % of control and the T/C (dose: 200.0 mg/kg/injection, schedule: Q01DX001 (ip), vehicle: saline with Tween-80) was 95 % of control.
